The data set has as its system TA98 and TA100 Salmonella strains. Nature of the data set: AMES test, statements on both lines. The following applies: adapted Ames test, TA98 and/or TA100, absence or presence of S9. From the text: AMES test: The method is adapted from D. M. Maron and B. N. Ames, Mutat.
The test involves evaluating the potential of the tested molecules to induce mutation which is reverse to the histidine locus of these lines. These two lines were provided by Dr. Bruce N. Ames (University of California, Berkeley, USA). They are resistant to Ampicillin and sensitive to Tetracycline. They are not mutant toward rfa, UvγV and UvγA. The line TA98 (his D3052) contains a mutation of reading phase (GC) whereas the line TA100 (his G46) contains a substitution of base pair (GC).
The compounds to be tested were dissolved in 100% of DMSO (the solvent) and diluted logarithmically (by a factor of 10) so as to obtain 4 test concentrations of 30,000; 3,000; 300 and 30 μg/ml. Each series of 0.1 ml of stock solution to be tested, 0.1 ml of test line and of culture medium with or without 0.5 ml of enzymatic homogenate (S9) of rat liver microsome were mixed with 2 ml of molten agarose (containing 0.5 mM of histidine and 0.5 mM of biotin). This mixture was placed on the surface of a plate of minimal agarose glucose medium (30 ml for each Petri dish) so as to obtain final concentrations of compound to be tested of 3,000; 300; 30 and 3 μγ/plate. The plates were then incubated at 37° C. for 48 hours. […] The revertant colonies of the test lines were counted using a colony counter (Sigma). […]
For orientation: The Ames test detects mutagens through reverse mutation in bacteria.

We go through 1 compound from patent publication US20120277265A1, “NOVEL POLYQUINOLINE DERIVATIVES AND THE THERAPEUTIC USE THEREOF” (CENTRE NATIONAL DE LA RECHERCHE SCIENTIFIQUE (C.N.R.S.), priority 2005, published 2012).

Turning to `CC(C)(c1ccc2cccc(O)c2n1)c1ccc2cccc(O)c2n1` [Compound 3, 2,2′-(2,2-propanediyl)-bis(8-hydroxyquinoline)], the “mutagenic or bactericidal effect” value is listed as “no mutagenic or bactericidal effect”.
